Experimental data taken from ChEMBL document CHEMBL1135950, “Decoding region bubble size and aminoglycoside antibiotic binding” (Bioorg Med Chem Lett, 2002).
pKd: −log10 of the molar value.

How the values were obtained:
Format in all cases: nucleic-acid assay, Homo sapiens
Nucleic Acid [1] = test: Dissociation constant for binding to mitochondrial 12S rRNA construct M3 was determined
Nucleic Acid [2] = test: Dissociation constant for binding to mitochondrial 12S rRNA construct M4 was determined
Nucleic Acid [3] = test: Dissociation constant for binding to mitochondrial 12S rRNA construct M2 was determined
Nucleic Acid [4] = test: Dissociation constant for binding to mitochondrial 12S rRNA construct M1 was determined; NB= No binding
Nucleic Acid [5] = test: Dissociation constant for binding to mitochondrial 12S rRNA construct M5 was determined

Compound	pKd (Nucleic Acid [1])	pKd (Nucleic Acid [2])	pKd (Nucleic Acid [3])	Kd (Nucleic Acid [4])	pKd (Nucleic Acid [5])
CN(C)c1ccc2c(-c3ccc(C(=O)NCC4O[C@H](O[C@@H]5C(O)[C@H](O[C@@H]6C(O)[C@H](N)CC(N)[C@H]6O[C@H]6OC(CO)[C@@H](O)[C@H](O)C6N)O[C@@H]5CO)[C@H](N)C(O)[C@@H]4O)cc3C(=O)[O-])c3ccc(=[N+](C)C)cc-3oc2c1 (stereo partly specified)	6.59	6.12	6.57	Not Active	6.48
NC[C@@H]1O[C@H](O[C@H]2[C@@H](O)[C@H](O[C@@H]3[C@@H](O)[C@H](N)C[C@H](N)[C@H]3O[C@H]3O[C@H](CN)[C@@H](O)[C@H](O)[C@H]3N)O[C@@H]2CO)[C@H](N)[C@@H](O)[C@@H]1O [FRAMYCETIN]	6.92	6.80	6.85		5.40
NC[C@H]1O[C@H](O[C@H]2[C@H](O)[C@@H](O[C@H]3O[C@H](CO)[C@@H](O)[C@H](N)[C@H]3O)[C@H](N)C[C@@H]2N)[C@H](O)[C@@H](O)[C@@H]1O [KANAMYCIN]	5.68	4.87	5.46		5.58
NC[C@@H]1O[C@H](O[C@H]2[C@@H](O)[C@H](O[C@@H]3[C@@H](O)[C@H](N)C[C@H](N)[C@H]3O[C@H]3O[C@H](CO)[C@@H](O)[C@H](O)[C@H]3N)O[C@@H]2CO)[C@H](N)[C@@H](O)[C@@H]1O [PAROMOMYCIN]	6.36	4.90	5.42		5.23
NC[C@H]1O[C@H](O[C@H]2[C@H](O)[C@@H](O[C@H]3O[C@H](CO)[C@@H](O)[C@H](N)[C@H]3O)[C@H](N)C[C@@H]2N)[C@H](N)C[C@@H]1O [TOBRAMYCIN]	6.37	5.54	5.49		5.27
